Test results taken from ChEMBL document CHEMBL3046235, “In vitro biological activities of new heterocyclic chalcone derivatives” (Med Chem Res, 2013).
≈ marks a conversion by molar mass, not a printed value. Calls of active or inactive are those of the source. The calls are words filed in the database; no cut-off is given here.

Legend:
Candida albicans [1] = experiment: Antimicrobial activity against Candida albicans assessed as diameter of growth inhibition zone at 40 ug/ml by disk diffusion method; format: functional; conditions: read-out: DIZ
Aspergillus niger [2] = experiment: Antimicrobial activity against Aspergillus niger assessed as diameter of growth inhibition zone at 40 ug/ml by disk diffusion method; format: functional; conditions: read-out: DIZ
Escherichia coli [3] = experiment: Antimicrobial activity against Escherichia coli isolated from infected patient assessed as diameter of growth inhibition zone at 40 ug/ml by disk diffusion method; format: functional; conditions: read-out: DIZ
Salmonella typhi [4] = experiment: Antimicrobial activity against Salmonella enterica subsp. enterica serovar Typhi isolated from infected patient assessed as diameter of growth inhibition zone at 40 ug/ml by disk diffusion method; format: functional; conditions: read-out: DIZ
Bacillus subtilis [5] = experiment: Antimicrobial activity against Bacillus subtilis isolated from infected patient assessed as diameter of growth inhibition zone at 40 ug/ml by disk diffusion method; format: functional; conditions: read-out: DIZ
Staphylococcus aureus [6] = experiment: Antimicrobial activity against Staphylococcus aureus isolated from infected patient assessed as diameter of growth inhibition zone at 40 ug/ml by disk diffusion method; format: functional; conditions: read-out: DIZ
HepG2 [7] = experiment: Cytotoxicity against Homo sapiens (human) HepG2 cells assessed as inhibition of cell viability by trypan blue exclusion method; format: functional; conditions: read-out: LC50 (the source's name)
Goatpox virus [8] = experiment: Antiviral activity against Goatpox virus infected African green monkey Vero cells assessed as inhibition of viral replication at MNTC dose incubated for 24 hr measured after 6 days; format: functional
Buffalopox virus [9] = experiment: Antiviral activity against Buffalopox virus virus infected African green monkey Vero cells assessed as inhibition of viral replication at MNTC dose incubated for 24 hr measured after 4 days; format: functional
Camelpox virus [10] = experiment: Antiviral activity against Camelpox virus infected African green monkey Vero cells assessed as inhibition of viral replication at MNTC dose incubated for 24 hr measured after 3 days; format: functional
Goatpox virus [11] = experiment: Antiviral activity against Goatpox virus infected African green monkey Vero cells assessed as reduction of virus titers at MNTC dose incubated for 24 hr measured after 6 days by TCID50 assay; format: functional, organism-based
Buffalopox virus [12] = experiment: Antiviral activity against Buffalopox virus virus infected African green monkey Vero cells assessed as reduction of virus titers at MNTC dose incubated for 24 hr measured after 4 days by TCID50 assay; format: functional, organism-based
Camelpox virus [13] = experiment: Antiviral activity against Camelpox virus infected African green monkey Vero cells assessed as reduction of virus titers at MNTC dose incubated for 24 hr measured after 3 days by TCID50 assay; format: functional, organism-based
Vero = experiment: Cytotoxicity against Chlorocebus aethiops (African green monkey) Vero cells assessed as change in morphological changes after 4 days by inverted microscopic analysis; format: cell-based; conditions: chlorocebus sabaeus, 96 h
[14] = tested on: Radical scavenging activity; experiment: Antioxidant activity assessed as DPPH radical scavenging activity at 15 ug/ml after 30 min by spectrophotometric analysis; format: functional
Candida albicans [15] = experiment: Antimicrobial activity against Candida albicans assessed as growth inhibition by disk diffusion method; format: functional
Aspergillus niger [16] = experiment: Antimicrobial activity against Aspergillus niger assessed as growth inhibition by disk diffusion method; format: functional
Escherichia coli [17] = experiment: Antimicrobial activity against Escherichia coli isolated from infected patient assessed as growth inhibition by disk diffusion method; format: functional
Salmonella typhi [18] = experiment: Antimicrobial activity against Salmonella enterica subsp. enterica serovar Typhi isolated from infected patient assessed as growth inhibition by disk diffusion method; format: functional
Bacillus subtilis [19] = experiment: Antimicrobial activity against Bacillus subtilis isolated from infected patient assessed as growth inhibition by disk diffusion method; format: functional
Staphylococcus aureus [20] = experiment: Antimicrobial activity against Staphylococcus aureus isolated from infected patient assessed as growth inhibition by disk diffusion method; format: functional
HepG2 [21] = experiment: Growth inhibition of Homo sapiens (human) HepG2 cells up to 75 ug/ml after 48 hr by MTT assay; format: functional, cell-based
HepG2 [22] = experiment: Growth inhibition of Homo sapiens (human) HepG2 cells at 100 ug/ml after 48 hr by MTT assay; format: functional; conditions: HepG2, 48 h, read-out: GI
HepG2 [23] = experiment: Growth inhibition of Homo sapiens (human) HepG2 cells at 25 to 100 ug/ml after 48 hr by MTT assay; format: functional, cell-based

SMILES	zone of inhibition at 40 µg/mL (Candida albicans [1]) [mm]	zone of inhibition at 40 µg/mL (Aspergillus niger [2]) [mm]	zone of inhibition at 40 µg/mL (Escherichia coli [3]) [mm]	zone of inhibition at 40 µg/mL (Salmonella typhi [4]) [mm]	zone of inhibition at 40 µg/mL (Bacillus subtilis [5]) [mm]	zone of inhibition at 40 µg/mL (Staphylococcus aureus [6]) [mm]	CC50 (HepG2 [7]) [µg/mL]	inhibition (INH) (Goatpox virus [8]) [%]	inhibition (INH) (Buffalopox virus [9]) [%]	inhibition (INH) (Camelpox virus [10]) [%]	inhibition (Goatpox virus [11])	inhibition (Buffalopox virus [12])	inhibition (Camelpox virus [13])	MNTD (Vero) [µg]	Activity [14] [%]	MIC (Candida albicans [15]) [µg/mL]	MIC (Aspergillus niger [16]) [µg/mL]	MIC (Escherichia coli [17]) [µg/mL]	MIC (Salmonella typhi [18]) [µg/mL]	MIC (Bacillus subtilis [19]) [µg/mL]	also measured
Cc1cc(C(=O)/C=C/c2c[nH]c3ccccc23)c(C)o1	19	11	21	22	22	22	81 (≈ 305 µM)	0	0	0	inactive	inactive	inactive	75	31	40 (≈ 151 µM)	40 (≈ 151 µM)	40 (≈ 151 µM)	30 (≈ 113 µM)	40 (≈ 151 µM)	MIC (Staphylococcus aureus [20]): 20 µg/mL (≈ 75.4 µM)
O=C(/C=C/c1ccc[nH]1)c1ccsc1	23	23	24	23	23	16	21 (≈ 103 µM)	0	0	0	inactive	inactive	inactive	4.68	31	40 (≈ 197 µM)	30 (≈ 148 µM)	40 (≈ 197 µM)	40 (≈ 197 µM)	30 (≈ 148 µM)	MIC (Staphylococcus aureus [20]): 40 µg/mL (≈ 197 µM)
Cc1cc(C(=O)/C=C/c2ccc(-c3ccccc3)cc2)c(C)o1	23	23	23	22	24	16	92 (≈ 304 µM)	0	0	0	inactive	inactive	inactive	4.68	31	20 (≈ 66.1 µM)	20 (≈ 66.1 µM)	20 (≈ 66.1 µM)	30 (≈ 99.2 µM)	30 (≈ 99.2 µM)	growth inhibition (GI) (HepG2 [21]): Active; inhibition of growth at 100 µg/mL (HepG2 [22]): 67%; MIC (Staphylococcus aureus [20]): 20 µg/mL (≈ 66.1 µM)
COc1ccc(/C=C/C(=O)c2cc(C)oc2C)cc1	18	18	21	24	23	21	63 (≈ 246 µM)	0	0	0	inactive	inactive	inactive	1.3	64.9	30 (≈ 117 µM)	30 (≈ 117 µM)	30 (≈ 117 µM)	20 (≈ 78 µM)	40 (≈ 156 µM)	MIC (Staphylococcus aureus [20]): 40 µg/mL (≈ 156 µM)
O=C(O)c1cn(C2CC2)c2cc(N3CCNCC3)c(F)cc2c1=O [CIPROFLOXACIN]	–	–	–	23	23	24	–	–	–	–	–	–	–	–	–	–	–	–	–	–	–
OC(Cn1cncn1)(Cn1cncn1)c1ccc(F)cc1F [FLUCONAZOLE]	24	25	–	–	–	–	–	–	–	–	–	–	–	–	–	–	–	–	–	–	–
COc1ccc(/C=C/C(=O)c2ccsc2)cc1	25	23	26	24	24	25	12 (≈ 49.1 µM)	0	0	0	inactive	inactive	inactive	6.24	31	30 (≈ 123 µM)	30 (≈ 123 µM)	20 (≈ 81.9 µM)	40 (≈ 164 µM)	30 (≈ 123 µM)	growth inhibition (GI) (HepG2 [23]): Active; MIC (Staphylococcus aureus [20]): 20 µg/mL (≈ 81.9 µM)
Cc1cc(C(=O)/C=C/c2ccc[nH]2)c(C)o1	17	21	18	19	21	21	59 (≈ 274 µM)	0	0	0	inactive	inactive	inactive	25	31	30 (≈ 139 µM)	40 (≈ 186 µM)	40 (≈ 186 µM)	40 (≈ 186 µM)	30 (≈ 139 µM)	MIC (Staphylococcus aureus [20]): 30 µg/mL (≈ 139 µM)
CCc1ccc(/C=C/C(=O)c2ccsc2)o1	25	23	25	26	25	23	8 (≈ 34.4 µM)	0	0	0	inactive	inactive	inactive	58.3	31	20 (≈ 86.1 µM)	40 (≈ 172 µM)	30 (≈ 129 µM)	20 (≈ 86.1 µM)	20 (≈ 86.1 µM)	growth inhibition (GI) (HepG2 [23]): Active; MIC (Staphylococcus aureus [20]): 20 µg/mL (≈ 86.1 µM)
O=C(/C=C/c1c[nH]c2ccccc12)c1ccsc1	28	24	20	19	16	19	36 (≈ 142 µM)	0	0	0	inactive	inactive	inactive	1.3	31	30 (≈ 118 µM)	30 (≈ 118 µM)	30 (≈ 118 µM)	30 (≈ 118 µM)	40 (≈ 158 µM)	MIC (Staphylococcus aureus [20]): 30 µg/mL (≈ 118 µM)
O=C(/C=C/c1ccc(-c2ccccc2)cc1)c1ccsc1	30	24	22	15	18	17	13 (≈ 44.8 µM)	0	0	0	inactive	inactive	inactive	7.8	31	30 (≈ 103 µM)	40 (≈ 138 µM)	30 (≈ 103 µM)	30 (≈ 103 µM)	30 (≈ 103 µM)	growth inhibition (GI) (HepG2 [23]): Active; MIC (Staphylococcus aureus [20]): 30 µg/mL (≈ 103 µM)
CCc1ccc(/C=C/C(=O)c2cc(C)oc2C)o1	21	22	27	23	24	18	69 (≈ 282 µM)	0	0	0	inactive	inactive	inactive	2.08	31	40 (≈ 164 µM)	40 (≈ 164 µM)	40 (≈ 164 µM)	40 (≈ 164 µM)	30 (≈ 123 µM)	MIC (Staphylococcus aureus [20]): 40 µg/mL (≈ 164 µM)
